According to patent US20240366809A1, “INHIBITOR OF PROSTATE SPECIFIC MEMBRANE ANTIGEN AND PHARMACEUTICAL USE THEREOF” (TIANJIN HENGRUI MEDICINE CO., LTD., priority 2021, published 2024):
Several values for one entry are separate records, joined by “and”; a condition that tells them apart may be missing. Identical values can stand only once.

How the values were obtained:
rhPSMA = rhPSMA (Homo sapiens (Human), UniProt Q04609); experiment: Affinity assays using enzyme activity method (Test Example 2); type: biochemical
rhPSMA, sequence (Q04609 44-750): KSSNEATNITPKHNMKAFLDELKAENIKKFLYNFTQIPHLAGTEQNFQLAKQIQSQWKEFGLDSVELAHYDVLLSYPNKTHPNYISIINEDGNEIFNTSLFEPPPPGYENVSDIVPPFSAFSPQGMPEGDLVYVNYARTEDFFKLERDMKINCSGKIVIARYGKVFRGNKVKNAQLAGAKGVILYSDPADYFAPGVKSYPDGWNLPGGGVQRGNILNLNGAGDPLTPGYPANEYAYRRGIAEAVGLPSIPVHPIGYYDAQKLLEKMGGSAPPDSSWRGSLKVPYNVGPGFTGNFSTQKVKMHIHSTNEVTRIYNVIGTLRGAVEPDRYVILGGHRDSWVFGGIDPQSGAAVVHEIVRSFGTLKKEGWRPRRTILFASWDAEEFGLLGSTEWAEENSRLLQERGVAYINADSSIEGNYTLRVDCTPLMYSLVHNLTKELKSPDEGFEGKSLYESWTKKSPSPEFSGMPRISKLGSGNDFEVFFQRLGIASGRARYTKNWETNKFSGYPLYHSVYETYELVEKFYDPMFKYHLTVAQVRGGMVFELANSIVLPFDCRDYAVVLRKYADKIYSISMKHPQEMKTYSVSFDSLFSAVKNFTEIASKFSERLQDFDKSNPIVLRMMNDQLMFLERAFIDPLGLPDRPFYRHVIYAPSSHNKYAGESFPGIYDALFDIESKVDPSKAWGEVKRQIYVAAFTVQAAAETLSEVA
Experimental: Buffer 1 (50 mM HEPES, 0.1 M NaCl, pH 7.5) was used to prepare a 0.4 μg/mL rhPSMA solution and a 40 μM solution of the substrate N-Acetyl-Asp-Glu. rhPSMA was mixed with the small molecules to be tested in a 96-well plate, with a constant rhPSMA content of 50 ng/well maintained. Meanwhile, the small molecules were step-wise diluted to final concentrations of 1 μM, 100 nM, 33.3 nM, 11.1 nM, 3.7 nM, 1.2 nM, 0.41 nM, 0.137 nM, 0.045 nM, and 0 nM. In addition, a positive control was set up using PSMA-617. The rhPSMA-small molecules were taken at 40 μL/well and well mixed with the 40 μM solution of the substrate N-Acetyl-Asp-Glu (40 μL/well). The mixtures were incubated at 37° C. in the dark for 1 h, were heated at 70° C. for 5 min to quench the reactions, and were cooled to room temperature. Buffer 2 (0.2 M NaOH, 0.1% beta-Mercaptoethanol) was used to prepare a 15 mM OPA solution. The OPA solution was added to the reaction systems at 80 μL/well and well mixed, and then the plate was incubated at room temperature for 10 min. The mixtures were taken at 100 μL/well and added to a 96-well Flat Black. With the excitation wavelength set to 330 nm and the emission wavelength to 465 nm, the intensity of signals was measured. IC50 values were obtained from dose-response curves.

[1] = Pharmacokinetics in blood of normal mice after single tail-vein injection; type: in vivo; conditions: for Blood % ID/g: normal mice, individual animals 1-4
Experimental: Through single tail-vein injections into mice, the pharmacokinetics of ^68Ga-v (Example 9) and PSMA-617 in blood was studied.
Each mouse was dosed at 50 μCi/100 μL, and blood samples were taken from the orbit 0.083, 0.25, 0.5, 1, 2, and 4 h post-dose (4 animals per time point). The blood samples were collected in pre-weighed sample tubes. The tubes were weighed and the weight of the blood samples was recorded. Then radioactivity counting was performed using a γ-counter. Meanwhile, a test sample was accurately diluted 100-fold, and 0.1 mL of the dilution was added to a counting tube and used as standard 1% ID (i.e., one percent of the injected dose). The radioactivity counts of the 1% ID standard and the biological samples were measured simultaneously on a γ-counter. The data on blood were expressed as the percentage of the radioactivity counts per gram of blood to the total injected dose (radioactivity counts) (% ID/g). Pharmacokinetic parameters were calculated from blood drug concentration data.

human organs = experiment: Absorbed doses of radiation, estimates for human organs (OLINDA software); conditions: for radiation dose estimate, Adrenals: human organ: Adrenals; for radiation dose estimate, Brain: human organ: Brain; for radiation dose estimate, Esophagus: human organ: Esophagus; for radiation dose estimate, Eyes: human organ: Eyes; for radiation dose estimate, Gallbladder Wall: human organ: Gallbladder Wall; for radiation dose estimate, Heart Wall: human organ: Heart Wall; for radiation dose estimate, Kidneys: human organ: Kidneys; for radiation dose estimate, Left colon: human organ: Left colon; for radiation dose estimate, Liver: human organ: Liver; for radiation dose estimate, Lungs: human organ: Lungs; for radiation dose estimate, Osteogenic Cells: human organ: Osteogenic Cells; for radiation dose estimate, Pancreas: human organ: Pancreas; for radiation dose estimate, Prostate: human organ: Prostate; for radiation dose estimate, Rectum: human organ: Rectum; for radiation dose estimate, Red Marrow: human organ: Red Marrow; for radiation dose estimate, Right colon: human organ: Right colon; for radiation dose estimate, Salivary Glands: human organ: Salivary Glands; for radiation dose estimate, Small Intestine: human organ: Small Intestine; for radiation dose estimate, Spleen: human organ: Spleen; for radiation dose estimate, Stomach Wall: human organ: Stomach Wall; for radiation dose estimate, Testes: human organ: Testes; for radiation dose estimate, Thymus: human organ: Thymus; for radiation dose estimate, Thyroid: human organ: Thyroid; for radiation dose estimate, Urinary Bladder Wall: human organ: Urinary Bladder Wall; for radiation dose estimate, Effective Dose: human: Effective Dose; for radiation dose estimate, Total Body: human: Total Body
Experimental: The AUC of drug metabolisms was calculated from the biodistribution (Bio-D) data and imported into the OLINDA software to generate doses of radiation absorbed by all the organs.

## O=C(O)CC[C@H](NC(=O)N[C@@H](CCCCNC(=O)[C@H](Cc1ccc2ccccc2c1)NC(=O)[C@H]1CC[C@]2(CC1)CN(C(=O)CN1CCN(CC(=O)O)CCN(CC(=O)O)CCN(CC(=O)O)CC1)CCO2)C(=O)O)C(=O)O [Example 9, (((S)-1-carboxy-5-((S)-3-(2-naphthyl)-2-((6S,9r)-4-(2-(4,7,10-tris(carboxymethyl)-1,4,7,10-tetraazacyclododecanyl)acetyl)-1-oxa-4-azaspiro[5.5]undecane-9-carboxamido)propanamido)pentyl)carbamoyl)-L-glutamic acid]
rhPSMA; enzyme activity experiment, FIG. 1
  affinity, comparison in words: better affinity than compound x of Example 11
rhPSMA; ratio of IC50 values
  Ratio to PSMA-617: 0.74
rhPSMA; rhPSMA 50 ng/well, substrate N-Acetyl-Asp-Glu, 37° C. 1 h
  IC50: 1.23 nM

## O=C([O-])CN1CCN(CC(=O)[O-])CCN(CC(=O)NCC2CCC(C(=O)N[C@@H](Cc3ccc4ccccc4c3)C(=O)NCCCC[C@H](NC(=O)N[C@@H](CCC(=O)O)C(=O)O)C(=O)O)CC2)CCN(CC(=O)[O-])CC1.[68Ga+3] (stereo partly shown) [^68Ga-PSMA-617, reference compound]
[1]; 0.083 h post-dose
  Blood % ID/g: 4.22 % ID/g (2×) and 4.29 % ID/g and 3.66 % ID/g
[1]; 0.25 h after the injections, mean of n=4
  content of the radioactive substance in the blood: 2.27±0.44 % ID/g
[1]; 0.25 h post-dose
  Blood % ID/g: 2.12 % ID/g and 2.53 % ID/g and 2.71 % ID/g and 1.73 % ID/g
[1]; 0.5 h post-dose
  Blood % ID/g: 0.55 % ID/g (2×) and 0.84 % ID/g and 0.86 % ID/g
[1]; 1 h post-dose
  Blood % ID/g: 0.14 % ID/g and 0.16 % ID/g and 0.10 % ID/g and 0.13 % ID/g
[1]; 2 h post-dose
  Blood % ID/g: 0.04 % ID/g and 0.07 % ID/g and 0.10 % ID/g and 0.13 % ID/g
[1]; 4 h post-dose
  Blood % ID/g: 0.29 % ID/g and 0.10 % ID/g and 0.09 % ID/g
[1]; blood of normal mice
  half-life in the blood: 13.2 min
[1]; blood of normal mice, 0-4 h
  AUCINF_obs: 1.65 ± 0.13 h* % ID/g
  AUClast: 1.66 ± 0.14 h* % ID/g
  Cl_obs: 12.10 ± 1.0 μCi/h* % ID/g
  Cmax: 4.10 ± 0.29 % ID/g
  MRTlast: 19.8 ± 3 min
  Vz_obs: 4.06 ± 1.39 μCi/% ID/g
  t1/2: 13.2 min and 13.2 ± 1.2 min
Human organs
  radiation dose estimate, Adrenals: 7.49E−02 mSv/MBq
  radiation dose estimate, Brain: 7.80E−02 mSv/MBq
  radiation dose estimate, Esophagus: 1.79E−02 mSv/MBq
  radiation dose estimate, Eyes: 1.25E−02 mSv/MBq
  radiation dose estimate, Gallbladder Wall: 3.22E−02 mSv/MBq
  radiation dose estimate, Heart Wall: 3.93E−02 mSv/MBq
  radiation dose estimate, Kidneys: 5.47E−01 mSv/MBq
  radiation dose estimate, Left colon: 1.63E−02 mSv/MBq
  radiation dose estimate, Liver: 1.75E−01 mSv/MBq
  radiation dose estimate, Lungs: 1.21E−01 mSv/MBq
  radiation dose estimate, Osteogenic Cells: 3.14E−01 mSv/MBq
  radiation dose estimate, Pancreas: 1.86E−02 mSv/MBq
  radiation dose estimate, Prostate: 7.73E−03 mSv/MBq
  radiation dose estimate, Rectum: 1.83E−01 mSv/MBq
  radiation dose estimate, Red Marrow: 2.11E−02 mSv/MBq
  radiation dose estimate, Right colon: 1.34E−02 mSv/MBq
  radiation dose estimate, Salivary Glands: 9.39E−03 mSv/MBq
  radiation dose estimate, Small Intestine: 1.00E−01 mSv/MBq
  radiation dose estimate, Spleen: 1.79E−01 mSv/MBq
  radiation dose estimate, Stomach Wall: 1.91E−02 mSv/MBq
  radiation dose estimate, Testes: 3.69E−03 mSv/MBq
  radiation dose estimate, Thymus: 1.16E−02 mSv/MBq
  radiation dose estimate, Thyroid: 1.08E−02 mSv/MBq
  radiation dose estimate, Urinary Bladder Wall: 5.54E−03 mSv/MBq
  radiation dose estimate, Effective Dose: 4.68E−02 mSv/MBq
  radiation dose estimate, Total Body: 3.61E−02 mSv/MBq

## O=C([O-])CN1CCN(CC(=O)[O-])CCN(CC(=O)NCC2CCC(C(=O)N[C@@H](Cc3ccc4ccccc4c3)C(=O)NCCCC[C@H](NC(=O)N[C@@H](CCC(=O)O)C(=O)O)C(=O)O)CC2)CCN(CC(=O)[O-])CC1.[177Lu+3] (stereo partly shown) [^177Lu-PSMA-617, reference compound]
Human organs
  radiation dose estimate, Adrenals: 2.43E−02 mSv/MBq
  radiation dose estimate, Brain: 1.38E−01 mSv/MBq
  radiation dose estimate, Esophagus: 3.39E−03 mSv/MBq
  radiation dose estimate, Eyes: 2.74E−03 mSv/MBq
  radiation dose estimate, Gallbladder Wall: 3.58E−03 mSv/MBq
  radiation dose estimate, Heart Wall: 2.41E−02 mSv/MBq
  radiation dose estimate, Kidneys: 1.47E+00 mSv/MBq
  radiation dose estimate, Left colon: 4.60E−03 mSv/MBq
  radiation dose estimate, Liver: 3.15E−02 mSv/MBq
  radiation dose estimate, Lungs: 1.12E−01 mSv/MBq
  radiation dose estimate, Osteogenic Cells: 5.58E−01 mSv/MBq
  radiation dose estimate, Pancreas: 4.36E−03 mSv/MBq
  radiation dose estimate, Prostate: 1.23E−03 mSv/MBq
  radiation dose estimate, Rectum: 1.49E−03 mSv/MBq
  radiation dose estimate, Red Marrow: 3.80E−03 mSv/MBq
  radiation dose estimate, Right colon: 2.74E−03 mSv/MBq
  radiation dose estimate, Salivary Glands: 2.18E−03 mSv/MBq
  radiation dose estimate, Small Intestine: 4.48E−02 mSv/MBq
  radiation dose estimate, Spleen: 9.86E−01 mSv/MBq
  radiation dose estimate, Stomach Wall: 8.22E−03 mSv/MBq
  radiation dose estimate, Testes: 5.04E−04 mSv/MBq
  radiation dose estimate, Thymus: 2.04E−03 mSv/MBq
  radiation dose estimate, Thyroid: 1.83E−03 mSv/MBq
  radiation dose estimate, Urinary Bladder Wall: 7.53E−04 mSv/MBq
  radiation dose estimate, Effective Dose: 4.74E−02 mSv/MBq
  radiation dose estimate, Total Body: 2.91E−02 mSv/MBq

## O=C([O-])CN1CCN(CC(=O)[O-])CCN(CC(=O)N2CCO[C@]3(CC[C@H](C(=O)N[C@@H](Cc4ccc5ccccc5c4)C(=O)NCCCC[C@H](NC(=O)N[C@@H](CCC(=O)O)C(=O)O)C(=O)O)CC3)C2)CCN(CC(=O)[O-])CC1.[177Lu+3] [^177Lu-v]
Human organs; from Table 5
  absorbed dose of radiation, comparison with the labeled PSMA-617 in words: smaller than that resulting from ^177Lu-PSMA-617
Human organs
  radiation dose estimate, Adrenals: 1.74E−02 mSv/MBq
  radiation dose estimate, Brain: 6.03E−02 mSv/MBq
  radiation dose estimate, Esophagus: 4.33E−03 mSv/MBq
  radiation dose estimate, Eyes: 2.21E−03 mSv/MBq
  radiation dose estimate, Gallbladder Wall: 4.67E−03 mSv/MBq
  radiation dose estimate, Heart Wall: 2.72E−02 mSv/MBq
  radiation dose estimate, Kidneys: 8.83E−01 mSv/MBq
  radiation dose estimate, Left colon: 4.81E−03 mSv/MBq
  radiation dose estimate, Liver: 7.43E−02 mSv/MBq
  radiation dose estimate, Lungs: 1.95E−01 mSv/MBq
  radiation dose estimate, Osteogenic Cells: 6.52E−01 mSv/MBq
  radiation dose estimate, Pancreas: 5.14E−03 mSv/MBq
  radiation dose estimate, Prostate: 1.29E−03 mSv/MBq
  radiation dose estimate, Rectum: 1.91E−03 mSv/MBq
  radiation dose estimate, Red Marrow: 4.16E−03 mSv/MBq
  radiation dose estimate, Right colon: 3.03E−03 mSv/MBq
  radiation dose estimate, Salivary Glands: 1.67E−03 mSv/MBq
  radiation dose estimate, Small Intestine: 1.73E−01 mSv/MBq
  radiation dose estimate, Spleen: 6.84E−01 mSv/MBq
  radiation dose estimate, Stomach Wall: 2.73E−02 mSv/MBq
  radiation dose estimate, Testes: 5.84E−04 mSv/MBq
  radiation dose estimate, Thymus: 2.83E−03 mSv/MBq
  radiation dose estimate, Thyroid: 2.41E−03 mSv/MBq
  radiation dose estimate, Urinary Bladder Wall: 9.14E−04 mSv/MBq
  radiation dose estimate, Effective Dose: 5.46E−02 mSv/MBq
  radiation dose estimate, Total Body: 3.07E−02 mSv/MBq
